Assay results from patent publication US20080292760A1, “Semi-Solid Food Products and Methods For Their Production, Based on Inhibiting Amylase Starch Breakdown” (WAGENINGEN CENTRE FOR FOOD SCIENCES, priority 2004, published 2008).

Target: T1, salivary amylase (Homo sapiens, UniProt P0DUB6)
T1 construct: from tissue; host or cells: saliva in the mouths of the human panelists (in vivo)
T1 sequence (P0DUB6 16-511): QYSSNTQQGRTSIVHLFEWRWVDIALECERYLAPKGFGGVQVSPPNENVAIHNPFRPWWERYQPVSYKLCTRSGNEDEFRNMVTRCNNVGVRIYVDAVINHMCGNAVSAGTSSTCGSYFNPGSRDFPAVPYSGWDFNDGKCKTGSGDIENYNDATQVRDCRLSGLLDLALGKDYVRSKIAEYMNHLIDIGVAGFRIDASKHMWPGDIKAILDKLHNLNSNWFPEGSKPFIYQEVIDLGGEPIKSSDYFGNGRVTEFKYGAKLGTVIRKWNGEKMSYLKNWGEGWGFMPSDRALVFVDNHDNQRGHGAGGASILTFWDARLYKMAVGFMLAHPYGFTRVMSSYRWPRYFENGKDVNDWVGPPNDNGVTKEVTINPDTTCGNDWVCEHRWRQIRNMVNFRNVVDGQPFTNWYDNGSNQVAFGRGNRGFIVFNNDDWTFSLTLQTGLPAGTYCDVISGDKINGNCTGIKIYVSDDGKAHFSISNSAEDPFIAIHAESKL
Experiment: acarbose study: sensory rating of vanilla custard desserts with added acarbose
Type: in vivo
Conditions: Creamex custard
Procedure: The role of salivary amylase in modifying texture sensations was evaluated in the following examples, in which the level of amylase activity was varied within subjects, rather than between subjects. Alpha-amylase was added in varying concentrations to starch and CMC (non-starch)-based vanilla custard desserts. Additionally, amylase activity was inhibited to various degrees by adding the pharmaceutical amylase inhibitor Acarbose (CAS nr. 56180-94-0) in various concentrations to the same test foods.
Eighteen subjects, 11 females and 7 males aged between 18 and 34 yrs, participated the ‘amylase study’ and 7 different subjects, all females aged between 39 and 56 yrs, participated in the ‘acarbose study’. The subjects participating in the latter study had been informed about acarbose and its possibly side effects if swallowed. To avoid these side effects, subjects expectorated rather than swallowed the acarbose samples. All subjects signed consent forms expressing their willingness to participate in the studies, and all had previously been screened for olfactory and taste disorders and had received extensive training in the description of sensory mouthfeel and afterfeel attributes for semi-solid foods. Testing took place at the sensory facilities of TNO-Nutrition and Food Research in Zeist, The Netherlands. […]

increase of creamy mouthfeel: up to 59%
SMILES: C[C@H]1O[C@H](O[C@H]2[C@H](O)[C@@H](O)[C@@H](O[C@H]3[C@H](O)[C@@H](O)C(O)O[C@@H]3CO)O[C@@H]2CO)[C@H](O)[C@@H](O)[C@@H]1N[C@H]1C=C(CO)[C@@H](O)[C@H](O)[C@H]1O (stereo partly shown) [Acarbose]
